Results on 1 compound are retold here after patent US20080031811A1, “Method For Preparing Radioactive Film” (DONG WHA PHARM. IND. CO., LTD., priority 2004, published 2008).

This data set in a line: Thermal characteristic of film (TGA). It counts as physicochemical. The note with it: measured at 500° C. The method, then:
The behavior of thermal change according to temperature change in holmium nitrate, polyurethane film, and holmium-165 polyurethane film (Example 13) is measured by using a thermogravimetric analyzer (TGA, […], Germany) and a differential scanning calorimetry (DSC, […], Germany). TGA analyzes the changes in the mass of a substance according to temperature by a thermal decomposition curve. The analysis conditions of TGA are as follows; 30˜600° C. of temperature, 5.0 mg of a substance, 10° C./min of heating rate. Calorie change of a substance according to temperature change is measured by DSC. DSC is measured at the same condition as TGA and the sample is sealed in an aluminum pan under nitrogen atmosphere.

In the case of `O=[N+]([O-])[O-].O=[N+]([O-])[O-].O=[N+]([O-])[O-].[Ho+3]` [holmium nitrate, ^165Ho(No3)3.5H2O], the “Residual weight % after decomposition” value stood at 37%.
